Several values for one entry are separate records, joined by “and”; a condition that tells them apart may be missing. Equal entries are not always repeated.
Conditions: 303.15 K, Liquid, Vibrating tube method

CCCCCC(=O)OCC(COC(=O)CCCCC)(COC(=O)CCCCC)COC(=O)CCCCC [pentaerythritol tetrahexanoate]
Conditions | mass density
8586.4 kPa | 993.8 kg/m3
8609.7 kPa | 993.8 kg/m3
8636.8 kPa | 993.8 kg/m3
8659.9 kPa | 993.9 kg/m3
8683.2 kPa | 993.9 kg/m3
8710.9 kPa | 993.9 kg/m3
8734.7 kPa | 993.9 kg/m3
8758.2 kPa | 993.9 kg/m3
8782.3 kPa | 993.9 kg/m3
8806.3 kPa | 994 kg/m3
8834.9 kPa | 994 kg/m3
8858 kPa | 993.9 kg/m3
8886.3 kPa | 994 kg/m3
8910.4 kPa | 994 kg/m3
8934.4 kPa | 994 kg/m3
8958.2 kPa | 994 kg/m3
8987 kPa | 993.9 kg/m3
9010.8 kPa | 994.1 kg/m3
9035.1 kPa | 994.1 kg/m3
9064.4 kPa | 994.1 kg/m3
9088.5 kPa | 994.1 kg/m3
9118.9 kPa | 994.2 kg/m3
9143 kPa | 994.1 kg/m3
9168.2 kPa | 994.3 kg/m3
9192.8 kPa | 994.1 kg/m3
9222.6 kPa | 994.1 kg/m3
9247.5 kPa | 994.2 kg/m3
9272.5 kPa | 994.3 kg/m3
9301.8 kPa | 994.2 kg/m3
9327.6 kPa | 994.2 kg/m3
9352.8 kPa | 994.4 kg/m3
9378.4 kPa | 994.3 kg/m3
9409.1 kPa | 994.3 kg/m3
9434.6 kPa | 994.3 kg/m3
9461.4 kPa | 994.4 kg/m3
9492.2 kPa | 994.3 kg/m3
9517.5 kPa | 994.3 kg/m3
9543.4 kPa | 994.4 kg/m3
9574.4 kPa | 994.4 kg/m3
9600.4 kPa | 994.5 kg/m3
9627 kPa | 994.4 kg/m3
9658 kPa | 994.6 kg/m3
9684.2 kPa | 994.6 kg/m3
9710.4 kPa | 994.5 kg/m3
9742.2 kPa | 994.4 kg/m3
9768.8 kPa | 994.5 kg/m3
9796.2 kPa | 994.6 kg/m3
9828.9 kPa | 994.6 kg/m3
9855.9 kPa | 994.7 kg/m3
9882.5 kPa | 994.6 kg/m3
9909.3 kPa | 994.6 kg/m3
9941.9 kPa | 994.6 kg/m3
9968.9 kPa | 994.7 kg/m3
9997 kPa | 994.7 kg/m3
10030 kPa | 994.7 kg/m3
10057 kPa | 994.7 kg/m3
10085 kPa | 994.7 kg/m3
10118 kPa | 994.7 kg/m3
10146 kPa | 994.8 kg/m3
10174 kPa | 994.8 kg/m3
10202 kPa | 994.8 kg/m3
10236 kPa | 994.8 kg/m3
10264 kPa | 994.8 kg/m3
10297 kPa | 994.8 kg/m3
10325 kPa | 994.9 kg/m3
10354 kPa | 994.8 kg/m3
10383 kPa | 994.8 kg/m3
10417 kPa | 994.9 kg/m3
10445 kPa | 994.9 kg/m3
10474 kPa | 995 kg/m3
10508 kPa | 994.9 kg/m3
10537 kPa | 994.9 kg/m3
10573 kPa | 995.1 kg/m3
11095 kPa | 995.5 kg/m3
11124 kPa | 995.3 kg/m3
11154 kPa | 995.4 kg/m3
11188 kPa | 995.3 kg/m3
11217 kPa | 995.4 kg/m3
11246 kPa | 995.5 kg/m3
11280 kPa | 995.5 kg/m3
11309 kPa | 995.4 kg/m3
11338 kPa | 995.5 kg/m3
11372 kPa | 995.5 kg/m3
11399 kPa | 995.6 kg/m3
11427 kPa | 995.6 kg/m3
11649 kPa | 995.6 kg/m3
11671 kPa | 995.7 kg/m3
11694 kPa | 995.7 kg/m3
11712 kPa | 995.7 kg/m3
11728 kPa | 995.6 kg/m3
11744 kPa | 995.7 kg/m3
11761 kPa | 995.7 kg/m3
11774 kPa | 995.7 kg/m3
11800 kPa | 995.8 kg/m3
11835 kPa | 995.8 kg/m3
11840 kPa | 995.9 kg/m3
11846 kPa | 995.8 kg/m3
11853 kPa | 995.9 kg/m3
11865 kPa | 995.8 kg/m3
11879 kPa | 995.9 kg/m3
11887 kPa | 995.8 kg/m3
11892 kPa | 995.9 kg/m3
11903 kPa | 995.8 kg/m3
11916 kPa | 995.8 kg/m3
11919 kPa | 995.9 kg/m3
11920 kPa | 995.9 kg/m3 and 995.8 kg/m3 and 995.7 kg/m3
11921 kPa | 995.9 kg/m3
11922 kPa | 995.8 kg/m3 and 995.9 kg/m3
11923 kPa | 995.8 kg/m3
12035 kPa | 995.9 kg/m3
12053 kPa | 996 kg/m3
12071 kPa | 995.9 kg/m3
12092 kPa | 995.9 kg/m3
12111 kPa | 995.9 kg/m3
12129 kPa | 996 kg/m3
12151 kPa | 996.1 kg/m3
12169 kPa | 996 kg/m3
12188 kPa | 995.9 kg/m3
12212 kPa | 996 kg/m3
12226 kPa | 996.1 kg/m3
12248 kPa | 996 kg/m3
12267 kPa | 996.1 kg/m3
12285 kPa | 996.1 kg/m3
12308 kPa | 996.1 kg/m3
12326 kPa | 996.1 kg/m3
12348 kPa | 996.1 kg/m3
12367 kPa | 996.1 kg/m3
12386 kPa | 996.2 kg/m3
12409 kPa | 996.2 kg/m3
12428 kPa | 996.2 kg/m3
12448 kPa | 996.1 kg/m3
12468 kPa | 996.2 kg/m3
12490 kPa | 996.3 kg/m3
12509 kPa | 996.3 kg/m3
12529 kPa | 996.2 kg/m3
12552 kPa | 996.3 kg/m3
12571 kPa | 996.1 kg/m3
12591 kPa | 996.2 kg/m3
12610 kPa | 996.3 kg/m3
12634 kPa | 996.3 kg/m3
12654 kPa | 996.2 kg/m3
12673 kPa | 996.3 kg/m3
12697 kPa | 996.4 kg/m3
12716 kPa | 996.4 kg/m3
12736 kPa | 996.4 kg/m3

Source: the NIST ThermoML archive (doi:10.1021/je060271a)
